Values joined by “and” are separate entries in the source; they are usually repeats but may differ in a detail not shown here. Equal entries are not always repeated. Where two headings read alike, the source gives them in different places.
Tests used:
[1] = target: T1, BF F710Y/D598A (Geobacillus stearothermophilus, UniProt P52026, A338V/A406G/A407V/A456E/A482S/A505K/A513T/A699P/A741E/D309E/D325E/D540E/D696E/D751E/E459R/E695D/F710Y/G324E/G408D/G483S/G600K/G678D/H329D/H417K/H567Y/H573N/H596R/H691Q/I672M/I841M/K356Q/L337V/L358V/L461F/M462L/M605I/N487E/P645S/P870S/Q512G/Q748R/R341H/R388C/R516Q/R816K/R823H/S306R/S424P/S812N/T369S/T436A/T442V/T475V/T491A/T508A/T536V/T728S/T790M/V391S/V413A/V537I/V598A/V619T/V813A); type: biochemical; design: burst activity kpol: unit not given here; settings: for pre-steady-state rate constant for nCTP addition: 3′-amino terminal primer; for Acceleration of kinetics over Ca2+: nCTP addition
T1 sequence (P52026 other isoform, or with tags, fused parts or gaps with the stated changes): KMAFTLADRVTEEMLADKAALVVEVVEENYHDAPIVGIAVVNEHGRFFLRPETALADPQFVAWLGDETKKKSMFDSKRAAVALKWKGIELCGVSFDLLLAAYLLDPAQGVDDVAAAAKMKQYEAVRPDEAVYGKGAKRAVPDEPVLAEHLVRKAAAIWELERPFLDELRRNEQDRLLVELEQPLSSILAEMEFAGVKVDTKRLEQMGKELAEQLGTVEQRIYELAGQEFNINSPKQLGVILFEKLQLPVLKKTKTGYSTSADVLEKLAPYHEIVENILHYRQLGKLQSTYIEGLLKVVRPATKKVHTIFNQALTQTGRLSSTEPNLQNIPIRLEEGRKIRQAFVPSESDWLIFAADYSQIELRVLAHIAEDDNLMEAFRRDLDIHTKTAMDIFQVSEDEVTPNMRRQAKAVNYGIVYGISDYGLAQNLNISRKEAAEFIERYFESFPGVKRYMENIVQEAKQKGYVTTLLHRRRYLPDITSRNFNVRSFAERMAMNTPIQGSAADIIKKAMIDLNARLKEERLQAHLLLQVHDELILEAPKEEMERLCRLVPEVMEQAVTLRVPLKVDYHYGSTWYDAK

[2] = target: T1, BF F710Y/D598A; type: biochemical; settings: for Effect on NP-DNA polymerization with all four nNTPs on mixed sequence templates: vs. Ca2+
[3] = target: wild-type BF (Geobacillus stearothermophilus, UniProt P52026); type: biochemical, Bacillus stearothermophilus; settings: for kpol of 3′-amino primer extension by wild-type BF: varying metal chloride concentration; for Kinetics of 3′-amino primer extension vs. absence of added divalent metals: 5 mM metal ion, 55° C., pH 8.8; for Kd: in the presence of 1 mM dCTP, read-out: Kd,app (apparent dissociation constant of metal ion)
Chain of wild-type BF (P52026 other isoform, or with tags, fused parts or gaps with the stated changes): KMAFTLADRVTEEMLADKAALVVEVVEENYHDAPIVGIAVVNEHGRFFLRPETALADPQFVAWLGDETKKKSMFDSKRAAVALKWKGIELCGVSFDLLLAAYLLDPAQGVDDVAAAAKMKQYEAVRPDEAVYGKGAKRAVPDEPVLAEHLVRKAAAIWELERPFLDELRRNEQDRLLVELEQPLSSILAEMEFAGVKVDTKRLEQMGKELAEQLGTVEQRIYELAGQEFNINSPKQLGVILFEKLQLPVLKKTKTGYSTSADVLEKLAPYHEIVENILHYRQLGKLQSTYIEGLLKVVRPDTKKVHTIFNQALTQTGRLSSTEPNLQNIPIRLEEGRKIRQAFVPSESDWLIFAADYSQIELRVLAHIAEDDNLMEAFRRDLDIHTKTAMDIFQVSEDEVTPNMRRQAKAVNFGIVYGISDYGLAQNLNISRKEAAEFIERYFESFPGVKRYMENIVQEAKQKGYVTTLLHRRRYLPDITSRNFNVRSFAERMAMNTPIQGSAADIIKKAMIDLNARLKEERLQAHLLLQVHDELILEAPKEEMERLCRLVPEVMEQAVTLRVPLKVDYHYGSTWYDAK
Description: Primer extension assays. Except where indicated, all extension reactions were performed with 1 μM fluorescein-labeled primer, 1.5 μM template, and ˜1.1 μM purified His6-tagged protein at 55° C. in a reaction buffer composed of 40 mM Tris-HCl, pH 8.8, 1 mM DTT, and a divalent cation as specified, typically 10 mM CaCl2. Reaction mixtures were equilibrated at the indicated reaction temperature for 1 min and initiated by addition of substrate. Progress was monitored by sampling 1 μL from the reaction manually quenched into 24 μL of chilled 90% formamide, 10 mM EDTA. Quenched samples were denatured at 90° C. for 1 min and cooled to room temperature prior to separation by denaturing polyacrylamide gel electrophoresis on 20% TBE-urea gels. To maintain strand separation for long extension products, as in FIGS. 3F-3H, an unlabeled DNA oligonucleotide complementary to the template was added to the quenching buffer (˜2 μM) prior to denaturation. Typically, 3 or 4 μL of quenched sample was loaded per lane for gels of 0.75-mm thickness. Bands were visualized with a Typhoon laser scanning imager (GE Amersham) and quantified with the manufacturer's software. For acid digestion of extended products, a reaction sample was diluted with 2.5 volumes of 1% acetic acid, 10 mM EDTA in formamide and digested at 75° C. for 45 min prior to gel separation.

[4] = target: BF (Geobacillus stearothermophilus, UniProt P52026, F710Y); assay: Extension of a native DNA 3′-OH primer with nCTP and trivalent cofactors; type: biochemical; settings: for pre-steady-state rate constant for extension of a native DNA 3′-OH terminus with nCTP: 5 mM metal, stoichiometric citrate, 55° C., mean±s.d.
Chain of BF (P52026 other isoform, or with tags, fused parts or gaps with the stated changes): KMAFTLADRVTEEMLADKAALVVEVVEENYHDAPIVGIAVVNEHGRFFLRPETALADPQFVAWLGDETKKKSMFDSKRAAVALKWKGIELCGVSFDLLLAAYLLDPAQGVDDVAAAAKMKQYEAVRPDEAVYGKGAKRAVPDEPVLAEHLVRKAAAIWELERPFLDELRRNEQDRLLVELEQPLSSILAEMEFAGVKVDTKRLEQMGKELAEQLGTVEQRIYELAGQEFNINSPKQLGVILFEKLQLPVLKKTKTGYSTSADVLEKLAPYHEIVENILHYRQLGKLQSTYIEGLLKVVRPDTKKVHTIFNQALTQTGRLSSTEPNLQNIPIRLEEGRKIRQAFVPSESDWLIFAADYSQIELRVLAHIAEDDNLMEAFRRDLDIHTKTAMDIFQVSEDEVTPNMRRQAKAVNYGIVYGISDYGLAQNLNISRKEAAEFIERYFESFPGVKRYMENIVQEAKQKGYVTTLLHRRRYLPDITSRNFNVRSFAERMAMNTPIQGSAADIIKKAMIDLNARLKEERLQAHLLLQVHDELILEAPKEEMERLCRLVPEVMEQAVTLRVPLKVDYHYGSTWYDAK

[5] = target: T2, BF F710Y (Geobacillus stearothermophilus, UniProt P52026, F710Y); assay: Elemental thio effect on pre-steady-state NP synthesis; type: biochemical; settings: 45° C.
[6] = target: T2, BF F710Y; assay: Solvent deuterium kinetic isotope effect (SDKIE) of 3′-amino primer extension; type: biochemical; settings: 1 mM dCTP, 10 mM CaCl2, varying mole fraction D2O

[Y+3] [Y^3+]
Effect on single-nucleotide 3′-amino primer extension ([1]; vs. Ca2+): significantly improved | Effect on NP-DNA polymerization with all four nNTPs on mixed sequence templates [2]: significantly improved

[Mg+2] [Mg^2+]
kpol of 3′-amino primer extension by wild-type BF ([3]; 1 mM dCTP): 0.015 min⁻¹ | Kinetics of 3′-amino primer extension vs. absence of added divalent metals [3]: faster | Kd [3]: 1300 µM | Effect of added Mg2+ on NP-DNA synthesis activated by Sc3+ ([2]; low millimolar range): inhibited

[Lu+3] [Lu^3+]
burst activity kpol ([1]; 55° C., nCTP, mean±s.e.m): 6.9±0.7 | Effect on single-nucleotide 3′-amino primer extension ([1]; vs. Ca2+): significantly improved | pre-steady-state rate constant for extension of a native DNA 3′-OH terminus with nCTP [4]: 8±1×10^−3 min^−1 | Multiple turnover activity in long primer extensions relative to Sc3+ ([2]; 55° C.): far weaker multiple turnover activity | Effect on NP-DNA polymerization with all four nNTPs on mixed sequence templates [2]: significantly improved

NCCCNCCCCNCCCN [spermine]
Activation of long NP-DNA synthesis by polyamine [2]: optimal at low micromolar concentrations

[Sc+3] [Sc^3+]
pre-steady-state rate constant for nCTP addition ([1]; 55° C.): 7.1 ± 0.5 min⁻¹ and 6.8 ± 0.3 min⁻¹ | Acceleration of kinetics over Ca2+ ([1]; 55° C.): ~100 fold | Acceleration of kinetics over Ca2+ ([1]; 55° C., listed as Scandium(III)): > 100 fold | Effect on single-nucleotide 3′-amino primer extension ([1]; vs. Ca2+): significantly improved | Stabilization effect ([1]; vs. Ca2+): ca. −3 kcal/mol | Specificity for the Sp over Rp substrates ([5]; Sc3+ activated): 66 fold | thio effect ([5]; Sc3+ activated, mean±s.d.): 0.58±0.07 | pre-steady-state rate constant for extension of a native DNA 3′-OH terminus with nCTP [4]: 5.5±0.6×10^−3 min^−1 | 3′-OH extension compared with 3′-NH2 extension ([4]; nCTP): at least three orders of magnitude slower | Length of NP-DNA strands yielded [2]: ≥ 100 nts | Overall NP polymerase reaction time to yield full length products ([2]; Sc3+ and spermine, 55° C.): 0.9-1.3 min/nt | Effect on NP-DNA polymerization with all four nNTPs on mixed sequence templates [2]: significantly improved | Full length products on mixed sequence DNA templates ([2]; with spermine, 55° C.): up to +71 nt | Time to synthesize full length products ([2]; with spermine, 55° C., +71 or +100 nt templates): 1 to 2 h | Full length products on mixed sequence DNA templates, with additional enzyme ([2]; with spermine, additional enzyme, 55° C.): up to +100 nt

Nc1ccn([C@H]2C[C@H](O)[C@@H](COP(O)(=S)OP(=O)(O)OP(=O)(O)O)O2)c(=O)n1 (stereo partly drawn) [Rp-dCTPαS, 2′-deoxycytidine 5′-O-(1-thiotriphosphate), reference compound]
Additional thio effect for Rp vs. Sp substrate ([5]; Ca2+ activated): 4 fold

[Sr+2] [Sr^2+]
Kinetics of 3′-amino primer extension vs. absence of added divalent metals [3]: faster

Nc1ccn([C@H]2C[C@H](O)[C@@H](COP(O)(=S)OP(=O)(O)OP(=O)(O)O)O2)c(=O)n1 (stereo partly drawn) [Sp-dCTPαS, 2′-deoxycytidine 5′-O-(1-thiotriphosphate), reference compound]
thio effect kO/kS ([5]; Ca2+ activated, dCTP vs. Sp-dCTPαS, mean±s.d.): 10.6±0.5

[Ba+2] [Ba^2+]
Kinetics of 3′-amino primer extension vs. absence of added divalent metals [3]: faster

[Ca+2] [Ca^2+]
Maximum reaction velocity, saturating Ca2+ vs. Mg2+ ([3]; 1 mM dCTP): ~5 fold | kpol of 3′-amino primer extension by wild-type BF ([3]; 1 mM dCTP): 0.075 min⁻¹ | Kinetics of 3′-amino primer extension vs. absence of added divalent metals [3]: faster | Kd [3]: 2100 µM | Kinetic effect among divalent cofactors ([3]; pH 8.8 and 55° C.): largest kinetic effect | Maximum reaction velocity ([3]; saturating metal ion): ~4.5 nt/hr | pre-steady-state rate constant for nCTP addition ([1]; 55° C.): 0.069 min⁻¹ | SDKIE [6]: 1.16

Source: patent US20240309418A1, “ENZYMATIC METHODS AND COMPOSITIONS FOR POLYMERIZATION OF PHOSPHORAMIDATE AND THIOPHOSPHORAMIDATE-LINKED DNA” (The General Hospital Corporation, priority 2023, published 2024)
